{
  "source": "patent US10682319B2",
  "about": "“Necrosis inhibitors” (National Institute of Biological Sciences, Beijing, priority 2014, dated 2020)",
  "data": [
    {"test_system": "HT-29 cells", "experiment": "Necrosis assay (TNF-α/Smac mimetic/z-VAD induced necrosis, cell viability by ATP level)", "format": "cell-based", "conditions": "HT-29, TNF-α + Smac mimetic + z-VAD, 24 hrs, ATP level; values given as ranges in nM; read-out: EC50 (inhibition of necrosis in HT-29 cells)", "method": "(§1) HT-29 cells were cultured in McCoy's 5 A culture medium (Invitrogen). On day one, HT-29 cells were plated in 96-well assay plates at density of 2,500-3,500 cells per well. On day two, necrosis were induced by adding 20 ng/ml TNF-α (T), 100 nM Smac mimetic (S), and […] z-VAD (Z). At the same time, […] compound from a chemical library of ˜200,000 compounds was delivered into each well. After 24 hrs treatment, cell viability was determined by measuring ATP level using the CellTiter-Glo Luminescent Cell Viability Assay kit. A CellTiter-Glo Assay (Promega) was performed according to the manufacturer's instructions Luminescence was recorded with a PerkinElmer EnSpire Multimode Plate Reader. Survived cells were normalized to those cells treated with DMSO. Nec-1 was used as a positive control for screening necrosis inhibitors. Data are represented as mean±standard deviation of duplicates\n(§2) Dose-dependent inhibition of necrosis by the compounds in HT-29 cells were determined by measuring ATP levels as described above.", "units": {"EC50": "nM"}, "values": [
      {"compound": "CCC(C)(C)C(=O)N(C)Cc1cc(C)c(C)s1", "note": "[Compound 128, N-((4,5-dimethylthiophen-2-yl)methyl)-N,2,2-trimethylbutanamide]", "EC50": "1 to 1000"},
      {"compound": "CCC(C)(C)C(=O)N(C)Cc1ccc(F)c(F)c1F", "note": "[Compound 49, N,2,2-trimethyl-N-(2,3,4-trifluorobenzyl)butanamide]", "EC50": "1 to 1000"},
      {"compound": "CC(F)(F)C(C)(C)C(=O)N(O)Cc1ccccc1", "note": "[Compound S6, N-benzyl-3,3-difluoro-N-hydroxy-2,2-dimethylbutanamide]", "EC50": "1 to 1000"},
      {"compound": "CN(Cc1cc(F)cc(F)c1F)C(=O)C1(C(F)(F)F)CCC1", "note": "[Compound 84, N-methyl-N-(2,3,5-trifluorobenzyl)-1-(trifluoromethyl)cyclobutanecarboxamide]", "EC50": "1 to 1000"},
      {"compound": "CCC(C)(C)C(=O)N(C)Cc1cccc(Cl)c1", "note": "[Compound 18, N-(3-chlorobenzyl)-N,2,2-trimethylbutanamide]", "EC50": "1 to 1000"},
      {"compound": "CCC(C)(C)C(=O)N(C)Cc1ccc(F)cc1F", "note": "[Compound 24, N-(2,4-difluorobenzyl)-N,2,2-trimethylbutanamide]", "EC50": "1 to 1000"},
      {"compound": "CN(Cc1cc(F)cc(F)c1F)C(=O)C(C)(C)C(C)(F)F", "note": "[Compound S5, 3,3-difluoro-N,2,2-trimethyl-N-(2,3,5-trifluorobenzyl)butanamide]", "EC50": "1 to 1000"},
      {"compound": "CN(Cc1cc(F)cc(F)c1F)C(=O)C1(C)CCCCC1", "note": "[Compound 65, N,1-dimethyl-N-(2,3,5-trifluorobenzyl)cyclohexanecarboxamide]", "EC50": "1 to 1000"},
      {"compound": "CCC(C)(C)C(=O)N(C)Cc1ccc(F)c(F)c1", "note": "[Compound 91, N-(3,4-difluorobenzyl)-N,2,2-trimethylbutanamide]", "EC50": "1 to 1000"},
      {"compound": "CCC(C)(C)C(=O)N(C)Cc1cc(F)cc(F)c1", "note": "[Compound 26, N-(3,5-difluorobenzyl)-N,2,2-trimethylbutanamide]", "EC50": "1 to 1000"},
      {"compound": "CCC(C)(C)C(=O)N(C)Cc1cccc(F)c1F", "note": "[Compound S8, N-(2,3-difluorobenzyl)-N,2,2-trimethylbutanamide]", "EC50": "1 to 1000"}
    ]},
    {"test_system": "HT-29 cells", "experiment": "Necrosis assay (TNF-α/Smac mimetic/z-VAD induced necrosis, cell viability by ATP level)", "format": "cell-based", "conditions": "Homo sapiens, HT-29, 24 h, HT-29, TNF-α + Smac mimetic + z-VAD, 24 hrs, ATP level; values given as ranges in uM; read-out: EC50 (inhibition of necrosis in HT-29 cells)", "method": "as §1, §2", "units": {"EC50": "nM"}, "values": [
      {"compound": "CCC(C)(C)C(=O)N(O)CC1CCCCC1", "note": "[Compound 141]", "EC50": "1000 to 100000"},
      {"compound": "CN(Cc1cc(F)cc(F)c1F)[S+]([O-])C(C)(C)C", "note": "(stereo not drawn) [Compound 78, N,2-dimethyl-N-(2,3,5-trifluorobenzyl)propane-2-sulfinamide]", "EC50": "1000 to 100000"},
      {"compound": "CCC(C)(C)C(=O)N[C@@H](C(=O)NCCc1ccccc1)c1ccccc1", "note": "[Compound 125, (R)-2,2-dimethyl-N-(2-oxo-2-(phenethylamino)-1-phenylethyl)butanamide]", "EC50": "1000 to 100000"},
      {"compound": "CC(F)(F)C(C)(C)C(=O)N(O)Cc1cc(F)c(F)c(F)c1", "note": "[Compound S13]", "EC50": "1000 to 100000"},
      {"compound": "CCC(C)(C)C(=O)N(C)Cc1cc(F)ccc1C#N", "note": "[Compound 57, N-(2-cyano-5-fluorobenzyl)-N,2,2-trimethylbutanamide]", "EC50": "1000 to 10000"},
      {"compound": "CCC1(C(=O)N(C)Cc2cc(F)c(F)c(F)c2)CCCC1", "note": "[Compound 89, 1-ethyl-N-methyl-N-(3,4,5-trifluorobenzyl)cyclopentanecarboxamide]", "EC50": "1000 to 10000"},
      {"compound": "CCC(C)(C)C(=O)N(C)Cc1ccc(N2CCCCC2)c([N+](=O)[O-])c1", "note": "[Compound 30, N,2,2-trimethyl-N-(3-nitro-4-(piperidin-1-yl)benzyl)butanamide]", "EC50": "1000 to 100000"},
      {"compound": "CCC(C)(C)C(=O)N(Cc1ccc(F)c(F)c1)OC", "note": "[Compound 132]", "EC50": "1000 to 100000"},
      {"compound": "CCC(C)(C)C(=O)N(Cc1cccc(F)c1)CC1CC1", "note": "[Compound 64, N-(cyclopropylmethyl)-N-(3-fluorobenzyl)-2,2-dimethylbutanamide]", "EC50": "1000 to 100000"},
      {"compound": "CCC(C)(C)C(=O)N(Cc1ccc(F)cc1)OC", "note": "[Compound 130]", "EC50": "1000 to 100000"},
      {"compound": "CCC(C)(C)C(=O)N(C)Cc1cccc(O)c1", "note": "[Compound 21, N-(3-hydroxybenzyl)-N,2,2-trimethylbutanamide]", "EC50": "1000 to 100000"},
      {"compound": "CCC(C)(C)C(=O)N(C)Cc1cccc(OC(F)(F)F)c1F", "note": "[Compound 33, N-(2-fluoro-3-(trifluoromethoxy)benzyl)-N,2,2-trimethylbutanamide]", "EC50": "1000 to 100000"},
      {"compound": "CON(Cc1ccc(F)cc1)C(=O)C(C)(C)C(C)(F)F", "note": "[Compound S15]", "EC50": "1000 to 100000"},
      {"compound": "CC(F)(F)C(C)(C)C(=O)N(O)Cc1ccc(F)cc1F", "note": "[Compound S10]", "EC50": "1000 to 100000"},
      {"compound": "CCC(C)(C)C(=O)N(C)Cc1ccc2ccccc2c1", "note": "[Compound 46, N,2,2-trimethyl-N-(naphthalen-2-ylmethyl)butanamide]", "EC50": "1000 to 100000"},
      {"compound": "CCC(C)(C)C(=O)N(C)Cc1cccnc1", "note": "[Compound 35, N,2,2-trimethyl-N-(pyridin-3-ylmethyl)butanamide]", "EC50": "1000 to 10000"},
      {"compound": "CCC(C)(C)C(=O)N(C)Cc1ccn(C)n1", "note": "[Compound 45, N,2,2-trimethyl-N-((1-methyl-1H-pyrazol-3-yl)methyl)butanamide]", "EC50": "1000 to 100000"},
      {"compound": "CC(F)(F)C(C)(C)C(=O)N(O)Cc1cc(F)c(F)cc1F", "note": "[Compound S12]", "EC50": "1000 to 100000"},
      {"compound": "C=CC(C)(C)C(=O)N(O)Cc1sc(C)cc1C", "note": "[Compound 146]", "EC50": "1000 to 100000"},
      {"compound": "CCC(C)(C)C(=O)NCc1cccc(F)c1", "note": "[Compound 5, N-(3-fluorobenzyl)-2,2-dimethylbutanamide]", "EC50": "1000 to 10000"},
      {"compound": "CCC(C)(C)C(=O)N(O)Cc1ccc(C)s1", "note": "[Compound 137]", "EC50": "1000 to 100000"},
      {"compound": "CCC(C)(C)C(=O)N(O)CC1CCCC1", "note": "[Compound 139]", "EC50": "1000 to 100000"},
      {"compound": "CN(Cc1cc(F)c(F)c(F)c1)C(=O)C1CCCC1", "note": "[Compound 85, N-methyl-N-(3,4,5-trifluorobenzyl)cyclopentanecarboxamide]", "EC50": "1000 to 100000"},
      {"compound": "CCC(C)(C)C(=O)N[C@@H](CC(=O)NCCOc1ccccc1)c1ccccc1", "note": "[Compound 126, (S)-2,2-dimethyl-N-(3-oxo-3-((2-phenoxyethyl)amino)-1-phenylpropyl)butanamide]", "EC50": "1000 to 100000"},
      {"compound": "CON(Cc1ccc(F)cc1F)C(=O)C(C)(C)C(C)(F)F", "note": "[Compound S16]", "EC50": "1000 to 100000"},
      {"compound": "CCC(C)(C)C(=O)N(C)Cc1cnc2ccccc2c1", "note": "[Compound 47, N,2,2-trimethyl-N-(quinolin-3-ylmethyl)butanamide]", "EC50": "1000 to 100000"},
      {"compound": "CCC(C)(C)C(=O)N(Cc1cc(F)c(F)c(F)c1)OC", "note": "[Compound 134]", "EC50": "1000 to 100000"},
      {"compound": "CC1CCCN(C(=O)N(C)Cc2cc(F)cc(F)c2F)C1", "note": "(stereo not drawn) [Compound 118, N,3-dimethyl-N-(2,3,5-trifluorobenzyl)piperidine-1-carboxamide]", "EC50": "1000 to 100000"},
      {"compound": "CCNC(=O)C[C@H](NC(=O)C(C)(C)CC)c1ccccc1", "note": "[Compound 103, (S)—N-(3-(ethylamino)-3-oxo-1-phenylpropyl)-2,2-dimethylbutanamide]", "EC50": "1000 to 100000"},
      {"compound": "CCC(C)(C)C(=O)N(C)Cc1cccnc1OC", "note": "[Compound 37, N-((2-methoxypyridin-3-yl)methyl)-N,2,2-trimethylbutanamide]", "EC50": "1000 to 100000"},
      {"compound": "CCN(Cc1cc(F)cc(F)c1F)C(=O)N(C)C(C)C", "note": "[Compound 115, 1-ethyl-3-isopropyl-3-methyl-1-(2,3,5-trifluorobenzyl)urea]", "EC50": "1000 to 100000"},
      {"compound": "CC(C)N(C(=O)N(C)Cc1cc(F)cc(F)c1F)C(C)C", "note": "[Compound 119, 1,1-diisopropyl-3-methyl-3-(2,3,5-trifluorobenzyl)urea]", "EC50": "1000 to 100000"},
      {"compound": "CN(Cc1cc(F)c(F)c(F)c1)C(=O)C1C(C)(C)C1(C)C", "note": "[Compound 81, N,2,2,3,3-pentamethyl-N-(3,4,5-trifluorobenzyl)-cyclopropanecarboxamide]", "EC50": "1000 to 100000"},
      {"compound": "CCC(C)(C)C(=O)N[C@@H](C(=O)NCc1ccccc1)c1ccccc1", "note": "[Compound 124, (R)—N-(2-(benzylamino)-2-oxo-1-phenylethyl)-2,2-dimethylbutanamide]", "EC50": "1000 to 100000"},
      {"compound": "CN(Cc1cc(F)cc(F)c1F)C(=O)C1CCC1", "note": "[Compound 83, N-methyl-N-(2,3,5-trifluorobenzyl)cyclobutanecarboxamide]", "EC50": "1000 to 10000"},
      {"compound": "CCC(C)(C)C(=O)N[C@@H](C(=O)NC)c1ccccc1", "note": "[Compound 122, (R)-2,2-dimethyl-N-(2-(methylamino)-2-oxo-1-phenylethyl)butanamide]", "EC50": "1000 to 100000"},
      {"compound": "CCC(C)(C)C(=O)NCc1cccnc1", "note": "[Compound 9, 2,2-dimethyl-N-(pyridin-3-ylmethyl)butanamide]", "EC50": "1000 to 10000"},
      {"compound": "CCC(C)(C)C(=O)NCc1ccccc1C(F)(F)F", "note": "[Compound 4, 2,2-dimethyl-N-(2-(trifluoromethyl)benzyl)butanamide]", "EC50": "1000 to 10000"},
      {"compound": "CCN(Cc1ccc(F)cc1F)C(=O)C(C)(C)CC", "note": "[Compound 29, N-(2,4-difluorobenzyl)-N-ethyl-2,2-dimethylbutanamide]", "EC50": "1000 to 10000"},
      {"compound": "CCC(C)(C)C(=O)N(Cc1ccc(F)cc1F)OC", "note": "[Compound 131]", "EC50": "1000 to 100000"}
    ]}
  ]
}
